Results taken from patent US20250127754A1, “Pharmaceutical Application of Dimyricetin-yl-diselenide in Atherosclerosis” (Shanghai Spark Pharmaceutical Co., Ltd., priority 2023, published 2025).
Entries after “also recorded” stand apart in the source; their conditions may differ.

Key:
Format in all cases: in vivo
[1] = test system: ApoE−/− mice; assay: Blood lipids (TG, TC, HDL-C, LDL-C) in plasma, high-fat diet atherosclerosis model; set-up: TG / TC / HDL-C / LDL-C: unit not given here; conditions: for Effect on LDL-c (in words) / Effect on TC (in words): compared to the model group
Experimental: (§1) Upon arrival, ApoE−/− mice were acclimatized to the experimental facility for 3 days. After an overnight fast (12 hours), blood samples were collected to measure baseline levels of serum lipids (TC, TG, HDL-C, LDL-C) and LDH. Control mice were fed a regular diet, while the remaining mice were fed a high-fat diet for 18 weeks. The regular diet contained 11% kcal fat and 0% cholesterol, while the high-fat diet contained 40% kcal fat and 0.21% cholesterol. At 8 weeks of high-fat feeding, the animals underwent echocardiography and blood biochemical tests. Based on their TC values, they were randomly assigned to the following groups: blank control, model control, positive control, AQ-C-a, DMS-ASD, and DMS (refer to Table 2 in Section 6.5). Drug administration continued for 10 weeks. During the experiment, the animals' appearance, behavior, and physical condition were observed, and their body weight, echocardiography, serum lipids (TC, TG, HDL-C, and LDL-C), and blood biochemistry (LDH, SOD, and MDA) were monitored. At the end of the experiment (Week 18), hearts and aortas were collected for Oil Red O staining and histopathological analysis.
(§2) Animals were fasted the night before blood collection. Blood samples were collected and anticoagulated with heparin to prepare plasma for the detection of TG, TC, HDL-C, LDL-c, and LDH. Blood was collected at six time points: Week 0, Week 8, Week 10, Week 12, Week 16, and Week 18. SOD and MDA levels were measured at Week 16 and Week 18.

[2] = test system: ApoE−/− mice; assay: Body weight, high-fat diet atherosclerosis model; conditions: HFD-fed ApoE−/− mice, compared with control group; FIG. 1
Experimental: as §1
All animals were given medicine […] once a day during the medication period;

[3] = test system: ApoE−/− mice; assay: Plasma LDH content, high-fat diet atherosclerosis model; set-up: LDH: unit not given here
Text: Upon arrival, ApoE−/− mice were acclimatized to the experimental facility for 3 days. […] Control mice were fed a regular diet, while the remaining mice were fed a high-fat diet for 18 weeks. […] At 8 weeks of high-fat feeding, the animals underwent echocardiography and blood biochemical tests. […] Drug administration continued for 10 weeks. During the experiment, the animals' appearance, behavior, and physical condition were observed, and their body weight, echocardiography, serum lipids (TC, TG, HDL-C, and LDL-C), and blood biochemistry (LDH, SOD, and MDA) were monitored. At the end of the experiment (Week 18), hearts and aortas were collected for Oil Red O staining and histopathological analysis. Animals were fasted the night before blood collection. Blood samples were collected and anticoagulated with heparin to prepare plasma for the detection of TG, TC, HDL-C, LDL-c, and LDH.

[4] = test system: ApoE−/− mice; assay: Plasma SOD and MDA, high-fat diet atherosclerosis model; set-up: MDA: unit not given here; conditions: QD: Atorvastatin 20 mg/kg P.O., AQ-C-a 300 mg/kg P.O., DMS-ASD 300 mg/kg P.O., DMS 20 mg/kg SC
Experimental: as §1, §2

[5] = test system: ApoE−/− mice; assay: Heart weight and heart weight index (tibial length corrected); conditions: 10 weeks QD: Atorvastatin 20 mg/kg P.O., AQ-C-a 300 mg/kg P.O., DMS-ASD 300 mg/kg P.O., DMS 20 mg/kg SC; for Heart: heart weight at end of experiment (week 18)
Experimental: At the experimental endpoint, hearts and tibias were collected. The heart was weighed and its weight index was calculated using tibial length for correction, with the formula: Heart Index=Heart Weight (g)/Tibial Length (cm)×100%. The heart was fixed in 4% PFA and subjected to HE staining to evaluate fat plaques in the outflow tract.

[6] = test system: ApoE−/− mice; assay: Aortic fat plaque examination (oil red O staining); conditions: for Effect on percentage of aortic plaque (in words): end of 18th week, compared with the model group; for % Patch area (aortic plaque): week 18, oil red staining of aorta, 10 weeks QD: Atorvastatin 20 mg/kg P.O., AQ-C-a 300 mg/kg P.O., DMS-ASD 300 mg/kg P.O., DMS 20 mg/kg SC
Experimental: as §1
Aortic oil red O staining was performed. The experimental endpoint was set at Week 10 post-treatment. After euthanasia, the aorta was collected from the aortic arch to the iliac artery and subjected to oil red O staining to analyze the accumulation of fat plaques in the aorta.

[7] = week 0, baseline before HFD and dosing, fasted plasma, mean±standard error
[8] = week 8 of HFD, before start of dosing, fasted plasma
[9] = week 10 of HFD (2 weeks dosing), QD: Atorvastatin 20 mg/kg P.O., AQ-C-a 300 mg/kg P.O., DMS-ASD 300 mg/kg P.O., DMS 20 mg/kg SC
[10] = week 12 of HFD (4 weeks dosing), QD: Atorvastatin 20 mg/kg P.O., AQ-C-a 300 mg/kg P.O., DMS-ASD 300 mg/kg P.O., DMS 20 mg/kg SC
[11] = week 16 of HFD (8 weeks dosing), QD: Atorvastatin 20 mg/kg P.O., AQ-C-a 300 mg/kg P.O., DMS-ASD 300 mg/kg P.O., DMS 20 mg/kg SC
[12] = week 18 of HFD (10 weeks dosing), QD: Atorvastatin 20 mg/kg P.O., AQ-C-a 300 mg/kg P.O., DMS-ASD 300 mg/kg P.O., DMS 20 mg/kg SC

`CC(C)c1c(C(=O)Nc2ccccc2)c(-c2ccccc2)c(-c2ccc(F)cc2)n1CC[C@@H](O)C[C@@H](O)CC(=O)O` [Atorvastatin, reference compound] was tested, and the “Effect on LDL-c (in words)” value [1] was “significantly reduced”, the “Effect on TC (in words)” value [1] was “significantly reduced” and the HDL-C [1, 7] was 1.53 ± 0.15. It also gave an LDL-C [1, 7] of 5.63 ± 0.34, a TC [1, 7] of 10.12 ± 0.84 and a TG [1, 7] of 1.79 ± 0.14. The HDL-C [1, 8] was 1.36 ± 0.13, the LDL-C [1, 8] was 22.23 ± 1.6 and the TC [1, 8] was 28.87 ± 2.19. It also gave a TG [1, 8] of 1.35 ± 0.17, an HDL-C [1, 9] of 1.51 ± 0.06 and an LDL-C [1, 9] of 16.31 ± 0.92. It also gave a TC [1, 9] of 22.38 ± 1.25, a TG [1, 9] of 2.31 ± 0.18 and an HDL-C [1, 10] of 1.59 ± 0.09. For the same compound, the LDL-C [1, 10] was 20.24 ± 2, the TC [1, 10] was 27.29 ± 2.61 and the TG [1, 10] was 2.2 ± 0.13. It also gave an HDL-C [1, 11] of 2.53 ± 0.12, an LDL-C [1, 11] of 14.32 ± 1.08 and a TC [1, 11] of 19.14 ± 1.34. The TG [1, 11] was 1.99 ± 0.2, the HDL-C [1, 12] was 2.5 ± 0.18 and the LDL-C [1, 12] was 13.87 ± 1.51. For the same compound, the TC [1, 12] was 18.89 ± 2.11, the TG [1, 12] was 1.51 ± 0.09 and the “Effect on body weight (in words)” value [2] was “significantly greater than those in the control group”. The LDH [3, 7] was 948.67 ± 117.19, the LDH [3, 8] was 1176.67 ± 142.27 and the LDH [3, 9] was 620 ± 62.03. The LDH [3, 10] was 422.67 ± 50.59, the LDH [3, 11] was 384 ± 25.93 and the LDH [3, 12] was 1384.67 ± 191.24. The SOD ([4]; week 16 (8 weeks dosing)) was 0.87 ± 0.09 U/mL, the SOD ([4]; week 18 (10 weeks dosing)) was 0.99 ± 0.09 U/mL and the Heart [5] was 0.192 ± 0.009 g. For the same compound, the “Effect on percentage of aortic plaque (in words)” value [6] was “significantly reduced” and the “% Patch area (aortic plaque)” value [6] was 6.86 ± 1.21 %.

In the case of Dimyricetin-yl-diselenide [DMS], the “Effect on LDL-c (in words)” value [1] is reported as “trend of reducing; also recorded: inhibiting the increase”, the “Effect on TC (in words)” value [1] is reported as “trend of reducing; also recorded: inhibiting the increase” and the HDL-C [1, 7] is reported as 1.63 ± 0.12. For the same compound, the LDL-C [1, 7] was 6.07 ± 0.19, the TC [1, 7] was 11.84 ± 0.85 and the TG [1, 7] was 1.99 ± 0.14. The HDL-C [1, 8] was 1.38 ± 0.15, the LDL-C [1, 8] was 22.09 ± 1.86 and the TC [1, 8] was 28.69 ± 2.34. For the same compound, the TG [1, 8] was 1.26 ± 0.07, the HDL-C [1, 9] was 1.44 ± 0.07 and the LDL-C [1, 9] was 23.38 ± 1.46. The TC [1, 9] was 30.95 ± 1.95, the TG [1, 9] was 2.14 ± 0.1 and the HDL-C [1, 10] was 1.44 ± 0.07. The LDL-C [1, 10] was 23.38 ± 1.46, the TC [1, 10] was 32.35 ± 1.96 and the TG [1, 10] was 2.29 ± 0.2. It also gave an HDL-C [1, 11] of 2.27 ± 0.15, an LDL-C [1, 11] of 21.1 ± 1.23 and a TC [1, 11] of 27.78 ± 1.36. The TG [1, 11] was 2.71 ± 0.35, the HDL-C [1, 12] was 2.1 ± 0.19 and the LDL-C [1, 12] was 15.94 ± 1.32. For the same compound, the TC [1, 12] was 20.92 ± 1.78, the TG [1, 12] was 1.27 ± 0.06 and the “Effect on body weight (in words)” value [2] was “stabilized from the 10th to 11th week and overlapped with the control group's weight curve by the 14th week; also recorded: inhibiting the increase”. The “Effect on plasma LDH (in words)” value ([3]; 18th week, compared to the model group, P<0.05) was “significant reductions; also recorded: inhibiting the increase”, the LDH [3, 7] was 1083.25 ± 375.4 and the LDH [3, 8] was 1022.5 ± 112.95. For the same compound, the LDH [3, 9] was 401.5 ± 22.95, the LDH [3, 10] was 368.5 ± 26.82 and the LDH [3, 11] was 361.88 ± 20.78. For the same compound, the LDH [3, 12] was 719 ± 81.08, the MDA ([4]; week 16 (8 weeks dosing)) was 7.19 ± 1.15 and the SOD ([4]; week 16 (8 weeks dosing)) was 1.06 ± 0.14 U/mL. It also gave an MDA ([4]; week 18 (10 weeks dosing)) of 6.08 ± 0.50, an SOD ([4]; week 18 (10 weeks dosing)) of 0.87 ± 0.03 U/mL and a Heart [5] of 0.169 ± 0.010 g. The Cardiac weight index ([5]; heart weight/tibial length, week 18) was 0.095 ± 0.006 g/cm, the “Effect on percentage of aortic plaque (in words)” value [6] was “statistically significant compared with the model group; also recorded: reducing the area” and the “% Patch area (aortic plaque)” value [6] was 8.43 ± 0.95 %.
